Source: patent US9364480B2, “Pharmaceutical composition for preventing or treating cancer, containing enoblock as active ingredient” (GWANGJU INSTITUTE OF SCIENCE AND TECHNOLOGY, priority 2012, dated 2016)
Entries after “also recorded” stand apart in the source; their conditions may differ.

What was measured:
[1] = system: PEPCK expression in HEK cells; experiment: PEPCK expression in kidney cells; type: cell-based; conditions: 10 μM, 24 h
Description: (§1) FIG. 10. […] Error=SD; *=P<0.05 compared to the no drug (DMSO-treated) group. […] Error=SD; *=P<0.05 for reduced PEPCK expression compared to the no drug (DMSO-treated) group.

HEK kidney cells = experiment: Glucose uptake with fluorescent glucose probe 2-NBDG, kidney cells; type: cell-based; conditions: 10 μM, 24 h
purified human enolase = purified human enolase (Homo sapiens, UniProt P06733); experiment: Affinity matrix binding of purified enolase (Western blot)
Sequence of purified human enolase (P06733 whole entry): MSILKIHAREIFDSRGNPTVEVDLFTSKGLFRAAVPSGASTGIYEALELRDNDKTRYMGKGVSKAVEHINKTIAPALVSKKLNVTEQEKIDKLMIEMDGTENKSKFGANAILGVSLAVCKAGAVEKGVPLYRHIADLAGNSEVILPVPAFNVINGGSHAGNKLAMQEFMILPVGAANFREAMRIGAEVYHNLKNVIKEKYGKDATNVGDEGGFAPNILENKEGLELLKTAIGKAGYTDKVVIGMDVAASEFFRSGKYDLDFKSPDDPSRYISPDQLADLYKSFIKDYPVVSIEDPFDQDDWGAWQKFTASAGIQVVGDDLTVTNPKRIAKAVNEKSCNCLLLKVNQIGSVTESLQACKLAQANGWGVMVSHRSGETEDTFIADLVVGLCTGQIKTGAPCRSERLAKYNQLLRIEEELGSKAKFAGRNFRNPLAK
Method: (§2) FIG. 4. […] (a) Affinity chromatography study for ENOblock in HCT116 cancer cells. […] (b) Sequence identification for the enolase monomer subunit. […] Mascot scores above 100 were deemed to be significant. […] Twenty micrograms of cell lysate from YD-10B oral cancer cells or Huh7 hepatocytes were used as positive controls. […] As a positive control, ENOblock affinity matrix was incubated with 200 μg of HCT 116 cell lysate; 50 μg cell lysate from HCT116 cancer cells was used as a positive control for the enolase antibody.
(§3) Affinity chromatography was used to identify the cellular target for AP-III-a4. Target identification strategies for the triazine library used in this study are relatively straightforward, because the molecules contain a built-in linker moiety. This allows conjugation to an affinity matrix with reduced risk of compromising biological activity.

Huh7 hepatocytes = experiment: Glucose uptake with fluorescent glucose probe 2-NBDG, hepatocytes; type: cell-based; conditions: 10 μM, 24 h
[2] = system: AKT expression in HCT116 cancer cells; experiment: AKT Western blot; type: cell-based; conditions: 24 h treatment
Method: (§4) FIG. 7. […] (b) Microscopic images of crystal violet stained HCT116 cells invaded onto the transwell inserts (scale bar=100 μm). […] (d) Microscopic images of crystal violet stained HCT116 cells migrated onto the transwell inserts (scale bar=100 μm). […] Cells were treated with 10 nM taxol and 10 nM vincristine, with or without 10 μM ENOblock. Error=SD; *=P<0.05 between the groups indicated on the graph. […] For the AKT Western blot, cells were treated with ENOblock for 24 h; for the Bcl-Xl Western blot, cells were treated with ENOblock for 48 h.

[3] = system: 5′ AMP-activated protein kinase (AMPK) expression in hepatocytes; experiment: AMPK expression in hepatocytes; type: cell-based; conditions: 10 μM, 24 h
Description: as §1

[4] = target: T1, enolase in HCT116 cancer cell lysate (Homo sapiens, UniProt P06733); experiment: Affinity chromatography / Western blot of affinity matrix eluate, cell lysate; type: binding
T1 construct: endogenous in cells; host or cells: HCT116 colon carcinoma cells (lysate)
T1 sequence (P06733 2-434): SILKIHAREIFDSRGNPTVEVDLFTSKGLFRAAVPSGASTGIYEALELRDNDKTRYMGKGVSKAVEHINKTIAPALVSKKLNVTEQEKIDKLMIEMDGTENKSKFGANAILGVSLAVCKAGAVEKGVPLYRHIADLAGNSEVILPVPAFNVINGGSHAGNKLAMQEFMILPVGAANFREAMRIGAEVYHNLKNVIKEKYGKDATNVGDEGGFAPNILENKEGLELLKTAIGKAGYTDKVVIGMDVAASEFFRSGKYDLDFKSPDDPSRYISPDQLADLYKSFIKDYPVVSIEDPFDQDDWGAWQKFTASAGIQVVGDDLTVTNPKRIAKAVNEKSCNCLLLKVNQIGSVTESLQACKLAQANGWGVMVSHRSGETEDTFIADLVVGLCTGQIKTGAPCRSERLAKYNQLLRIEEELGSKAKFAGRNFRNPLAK
Method: as §2, §3

HCT116 cancer cells [5] = experiment: Cancer cell migration (transwell inserts, crystal violet); type: cell-based; conditions: HCT116, normoxia
Method: as §4

[6] = system: HCT116 colon carcinoma cells; experiment: Screening for apoptosis inducers effective under hypoxia (MTT cytotoxicity, hypoxia vs normoxia); type: cell-based
Method: FIG. 1. Discovery of compound AP-III-a4 (ENOblock). (a) Schematic of the screening system used to detect apoptosis inducers effective under hypoxia. HCT116 cancer cells were seeded in parallel 96-well culture plates. Hypoxia was induced in one plate using 150 μM cobalt chloride treatment. Triazine library compound at 5 μM concentration was added 4 h later, and cell death was determined 24 h after hypoxia induction. […] (b) Chemical structures of AP-III-a4 (ENOblock) and the control compounds, AP-IV-e3 and AP-I-f10. Chemical structures of GAPDS, which targets glyceraldehyde 3-phosphate dehydrogenase (GAPDH), and rosiglitazone, a well-known anti-diabetes drug, are also shown. […] Error=SD; *=P value<0.05 for increased cell death compared to normoxia. P value: hypox 10=1.23×10^−6; hypox 5=2.38×10^−6; hypox 2.5=1.16×10^−5; hypox 1.25=0.000334. (d) Representative phase contrast microscopic images of HCT116 colon cancer cells treated with ENOblock under normoxia or hypoxia.
HCT116 colon carcinoma cells were seeded in 2 sets of 96 well plates at a density of 5×10^3 cells per well. ‘Low glucose’ DMEM (containing 5 mM glucose; Invitrogen, OR, USA) was used for screening, because glycolysis inhibitors, such as 2-Deoxy-D-glucose (2-DG), are effective by competing with glucose. 24 h later, the hypoxic condition was induced in one set of 96 well plates by treatment with 150 μM of 0.22 μm filtered CoCl2 and the culture media volume was reduced by 50% (to 100 μL/well), as previously described.^49 4 h later, test compounds from a tagged triazine library^5 were screened at a concentration of 5 μM in duplicate wells. Cytotoxicity was determined by MTT assay 24 h after adding drug. ‘Hits’ for further analysis were classified as compounds that 25% or higher cytotoxicity in the hypoxia condition compared to the normoxia condition (as measured by MTT assay absorbance). 50 μM 2-DG, an inhibitor of glycolysis that selectively kills cancer cells in hypoxic conditions^50, was used as a positive control.
We developed a novel, dual screening system to identify molecules that preferentially kill cancer cells in a hypoxic environment (FIG. 1). A small molecule library of 384 triazines prepared on a solid support5 (5; FIG. 3) was screened. A “hit” molecule was defined as an inducer of at least 25% increased cancer cell toxicity in hypoxia compared to normoxia (as determined using the 3-(4,5-dimethylthiazol-2-yl)-2,5-diphenyltetrazolium bromide, a tetrazole (MTT) assay). Five from 384 triazines screened produced greater cancer cell toxicity under hypoxia.

monocytes = experiment: Monocyte differentiation into macrophages (attached cell count, PMA); type: cell-based; conditions: PMA treated; 10 μM
Method: (§5) FIG. 14. […] Treatment with 3 mM H2O2 for 48 h was used as a positive control.

[7] = system: PEPCK expression in adult zebrafish liver; experiment: PEPCK expression in adult zebrafish liver; conditions: 10 μM, 3 h
macrophages = experiment: Macrophage cytotoxicity (MTT assay); type: cell-based
Method: as §5

[8] = system: Bcl-Xl expression in HCT116 cancer cells; experiment: Bcl-Xl Western blot; type: cell-based; conditions: 48 h treatment
Method: as §4

HCT116 cancer cells [9] = experiment: Cancer cell invasion (transwell inserts, crystal violet); type: cell-based; conditions: HCT116, normoxia
Method: as §4

For `NCCOCCOCCNC(=O)Cc1ccc(Nc2nc(NCc3ccc(F)cc3)nc(NCC3CCCCC3)n2)cc1` [ENOblock], the PEPCK expression [1] was “inhibited expression of PEPCK”, the “glucose uptake (2-NBDG)” value (HEK kidney cells) was “induced glucose uptake” and the “binding of purified enolase to compound affinity matrix” value (purified human enolase) was “purified human enolase binds to the ENOblock affinity matrix; also recorded: could bind to purified human enolase”. The “competition by free compound for purified enolase binding to ENOblock affinity matrix” value (purified human enolase) was “inhibited purified enolase binding to the ENOblock affinity matrix”, the “glucose uptake (2-NBDG)” value (Huh7 hepatocytes) was “induced glucose uptake” and the AKT expression [2] was “decreased the expression of AKT and Bcl-Xl”. For the same molecule, the AMPK expression [3] was “did not affect expression of the enzymes”, the “competition by free compound for enolase binding to ENOblock affinity matrix” value [4] was “completely inhibited enolase binding to the ENOblock affinity matrix” and the “binding of lysate proteins/enolase to compound affinity matrix” value ([4]; silver stain, mass spectrometry) was “enolase in HCT116 cancer cell lysate binds to the ENOblock affinity matrix”. For the same molecule, the cancer cell migration (HCT116 cancer cells [5]) was “inhibited cell migration dose-dependently”, the “inhibition of cell migration compared with LY294002” value (HCT116 cancer cells [5]) was “more effective than LY294002 at inhibiting cell migration” and the “cell viability of cancer cells cultured under hypoxia” value ([6]; FIG. 1c-1d) was “reduced cell viability dose-dependently”. For the same molecule, the “hit classification in triazine library screen (25% or greater cell death under hypoxia compared to normoxia)” value ([6]; HCT116, 5 μM compound, 24 h, MTT) was “best performing hit molecule”, the “cell death in hypoxic conditions compared to normoxia” value ([6]; HCT116, hypoxia by 150 μM cobalt chloride, MTT, FIG. 1c) was “higher levels of HCT116 colon cancer cell death in hypoxic conditions (Hypox) compared to normoxia” and the “trypan blue uptake (cell death)” value ([6]; under hypoxia) was “increased trypan blue uptake under hypoxia”. The “monocyte differentiation into macrophages (number of attached cells)” value (monocytes) was “inhibited differentiation into macrophages”, the “hepatic PEPCK expression in vivo” value [7] was “inhibited PEPCK expression in adult zebrafish liver” and the “cytotoxicity to macrophages (MTT absorbance 570 nm)” value (macrophages) was “not due to cytotoxicity”. The Bcl-Xl expression [8] was “decreased the expression of AKT and Bcl-Xl”, the cancer cell invasion (HCT116 cancer cells [9]; 0.625-2.5 μM) was “inhibited invasion dose-dependently” and the “treatment concentration at which cancer cell invasion is significantly inhibited” value (HCT116 cancer cells [9]; P value=0.0481) was 0.625 µM.
